Measured values as given in patent publication US20070248705A1, “Agents for Activating the Transcription Factor Nrf2 and Foods Having Such Function” (KIRIN BEER KABUSHIKI KAISHA, priority 2004, published 2007).

Columns and labels:
[1] = tested on: catalase 1 (CAT1); assay: Expression of genes controlled by Nrf2 in RAW264.7: CAT1; format: cell-based, mouse; conditions: RAW264.7, 25 μM, 20 hours
Description: (§1) A mouse macrophage cell line RAW264.7 was seeded on a φ60 mm dish (9×10^5 cells), 2 ml of a D-MEM medium (Invitrogen) supplemented with 10% fetal bovine serum (HyClone) and penicillin-streptomycin (100 units/ml and 100 μg/ml, respectively; Sigma) was added, and the dish was incubated at 37° C. in an atmosphere of 5% CO2 for 2 days. The medium was replaced with a fresh medium containing individual samples and incubation was continued for another 20 hours. Then, the total RNA was prepared using TRIzol (Invitrogen) and purified using a RNeasy Mini kit (Qiagen) and an RNase-free DNase set (Qiagen). Further, cDNA was synthesized from 5 μg of the purified total RNA using a Thermo Script RT-PCR system (Invitrogen), and the amount of mRNA expression of various genes was determined using a FastStart DNA Master SYBR Green I kit (Roche) and a Light Cycler (Roche).
(§2) The amount of expression of the various genes was corrected by the amount of expression of the housekeeping gene PO and calculated as a relative expression level (n=2, mean±standard deviation). […]

[2] = tested on: glutathione S-transferase pi2 (GSTP2); assay: Expression of genes controlled by Nrf2 in RAW264.7: GSTP2; format: cell-based, mouse; conditions: RAW264.7, 25 μM, 20 hours
Description: as §1, §2

[3] = tested on: TNF-α; assay: Suppression of TNF-α production by macrophages (TPA and IFN-γ); format: cell-based, mouse; conditions: RAW264.7, TPA 400 nM and IFN-γ 10 units/ml, 5, 10, 20, and 40 μM, 24 hours
Description: A mouse macrophage cell line RAW264.7 (4×10^4 cells/well) was seeded on a 96-well plate, […] of a D-MEM medium (Invitrogen) containing each sample, 10% fetal bovine serum (HyClone), and penicillin-streptomycin (100 units/ml and 100 μg/ml, respectively; Sigma) was added, and the plate was incubated at 37° C. in an atmosphere of 5% CO2 for 4 hours. Then 150 μl of a medium containing TPA (phorbol 12-tetradecanoate 13-acetate, Sigma), mouse IFN-γ (interferon-γ, eBioscience), and each sample was added and incubation was carried out for 24 hours. TPA and IFN-γ were added at a final concentration of 400 nM and 10 units/ml, respectively. As samples, isomerized hop extract was added at a concentration of 5, 10, 20, and 30 μ/ml and isohumulone (IH(F)) and isohumulone (IcH(G)) were added individually at a concentration of 5, 10, 20, and 40 μM.
After completing incubation, the amount of TNF-α in the culture fluid was measured using a mouse TNF-α ELISA kit(eBioscience). The amount of TNF-α was expressed as a relative value by setting the value for the control as 100% (n=3, mean±standard variation). As a positive control, 15dPGJ2 (Cayman Chemical) was used.

[4] = tested on: glutamate cysteine ligase modifier subunit (GCLM); assay: Expression of genes controlled by Nrf2 in RAW264.7: GCLM; format: cell-based, mouse; conditions: RAW264.7, 25 μM, 20 hours
Description: as §1, §2

[5] = tested on: quinone reductase (QR) activity in mouse hepatoma Hepa1c1c7 cells; assay: Induction of quinone reductase (QR) activity; format: cell-based; conditions: Hepa1c1c7 cells, 0.6, 1.7, 5, and 15 μM, 48 hours; listed as HI (F)
Description: It has been known that quinone reductase (QR) activity is increased by increasing the expression of NAD(P)H:quinone oxidoreductase (NQO1) by Nrf2 activation (Proc Natl Acad Sci USA. 101, 10446-51 (2004)). Accordingly, isohumulones were allowed to act on mouse hepatoma Hepa1c1c7 cells (available from Dainippon Pharmaceutical Co., Ltd.) to examine whether the QR activity was induced.
The QR activity was measured in accordance with the method described in Analytical Biochemistry 169, 328-336 (1988).
A mouse hepatoma cell line Hepa1c1c7 was seeded on a 96-well plate (7-10×10^3 cells/well), 50 μl each of an α-MEM medium (Invitrogen) supplemented with 10% fetal bovine serum (HyClone) and penicillin-streptomycin (100 units/ml and 100 μg/ml, respectively; Sigma) was added, and the plate was incubated at […] in an atmosphere of 5% CO2 overnight. Next, the culture medium was replaced with a medium containing isomerized hop extract individually at a concentration of 1.9, 5.6, 16.7, or 50 μg/ml, or with a medium containing humulone (H), cohumulone (cH), adhumulone (aH), isohumulone (IH), isohumulone (IcH), or isohumulone (IaH) individually at a concentration of 0.6, 1.7, 5, and 15 μM and the plate was further incubated for 48 hours. Then, the cells in each well were broken using 0.08% digitonin and a 2 mM EDTA solution and absorption at 610 nm was measured by a menadione-formazan system using a microplate reader (Power Wave 200, Bio-Tek Instruments).
The QR inducing activity was calculated as a relative activity setting the activity of cells without addition to be 1 (n=3, mean±standard variation). Sulforaphane (Sul, available from Sigma) was used as a positive control.

Compound: CC(C)=CCC(=O)C1(O)C(O)=C(C(=O)CC(C)C)C(=O)C1CC=C(C)C (centres unmarked) [IH (F), isohumulone]
- expression of CAT1 [1]: augmented the expression
- expression of GSTP2 [2]: augmented the expression
- TNF-α production [3]: concentration-dependently suppressed
- expression of GCLM [4]: augmented the expression
- QR inducing activity [5]: activity was higher in isohumulones having a higher trans form content
